Measurements as given in PMC6001238, “Iterative Chemical Engineering of Vancomycin Leads to Novel Vancomycin Analogs With a High in Vitro Therapeutic Index” (Frontiers in Microbiology, 2018).
Converted amounts (≈) assume the structure as drawn. Read-outs that look alike come from different tables or passages of the source.

What was measured:
E. faecalis VSE 1 = assay: MIC, broth microdilution, vancomycin-sensitive E. faecalis (VSE 1); assay type: cell-based, Enterococcus faecalis; details: for MIC: Enterococcus faecalis VSE 1 (vancomycin-sensitive), read-out: MIC; for MIC-fold improvement vs. vancomycin: VSE 1, ratio of MIC of vancomycin and MIC of analogue
Outline: (§1)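 Susceptibility was scored by broth microdilution (CLSI). In one instance each vancomycin analog or control antibiotic was tested in the presence of vancomycin, 10 μM final, and ultrapure water plus non-inoculated broth were included as controls.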

E. faecalis VRE 6 = assay: MIC, broth microdilution, vancomycin-resistant E. faecalis VRE 6 (VanA); assay type: cell-based, Enterococcus faecalis; details: for MIC: Enterococcus faecalis VRE 6 (vancomycin-resistant), read-out: MIC; for MIC-fold improvement vs. vancomycin: VRE 6, ratio of MIC of vancomycin and MIC of analogue
Outline: as §1

E. faecalis VRE 53 = assay: MIC, broth microdilution, vancomycin-resistant E. faecalis VRE 53 (VanA); assay type: cell-based, Enterococcus faecalis; details: for MIC: Enterococcus faecalis VRE 53 (vancomycin-resistant), read-out: MIC; for MIC-fold improvement vs. vancomycin: VRE 53, ratio of MIC of vancomycin and MIC of analogue
Outline: as §1

E. faecalis VRE 29 = assay: MIC, broth microdilution, vancomycin-resistant E. faecalis VRE 29 (VanA); assay type: cell-based, Enterococcus faecalis; details: for MIC: Enterococcus faecalis VRE 29 (vancomycin-resistant), read-out: MIC; for MIC-fold improvement vs. vancomycin: VRE 29, ratio of MIC of vancomycin and MIC of analogue
Outline: as §1

E. faecalis VRE 37 = assay: MIC, broth microdilution, vancomycin-resistant E. faecalis VRE 37 (VanA); assay type: cell-based, Enterococcus faecalis; details: for MIC: Enterococcus faecalis VRE 37 (vancomycin-resistant), read-out: MIC; for MIC-fold improvement vs. vancomycin: VRE 37, ratio of MIC of vancomycin and MIC of analogue
Outline: as §1

[1] = system: Murine leukemia (L1210) cells; assay: Cytostatic activity, L1210 cell proliferation; assay type: cell-based; details: mean ± SD of three experiments; highest concentration tested 250 µM; 2 days; read-out: Toxicity (IC50) L1210
Outline: (§2)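 Suspensions (300,000–500,000 cells/mL) combined with equal volumes of diluted compound; 37°C; L1210 2 d / CEM 3 d / HeLa 4 d; counted by Coulter counter; IC50 vs untreated wells.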

[2] = system: human T-lymphocyte (CEM) cells; assay: Cytostatic activity, CEM cell proliferation; assay type: cell-based; details: mean ± SD of three experiments; highest concentration tested 250 µM; 3 days; read-out: Toxicity (IC50) CEM
Outline: as §2

[3] = system: human cervix carcinoma (HeLa) cells; assay: Cytostatic activity, HeLa cell proliferation; assay type: cell-based; details: mean ± SD of three experiments; highest concentration tested 250 µM; 4 days; read-out: Toxicity (IC50) HeLa
Outline: as §2

[4] = system: L1210, CEM and HeLa cell lines; assay: Cytostatic activity, average or summary over L1210, CEM and HeLa; assay type: cell-based; details: average of L1210, CEM and HeLa; read-out: Toxicity (IC50) Average
Outline: as §2

[5] = system: S. aureus VSSA (ATCC 6538); assay: MIC, broth microdilution, vancomycin-sensitive S. aureus (VSSA/MSSA, ATCC 6538); assay type: cell-based, Staphylococcus aureus; details: for MIC: Staphylococcus aureus VSSA, read-out: MIC; for MIC-fold improvement vs. vancomycin: VSSA, ratio of MIC of vancomycin and MIC of analogue
Outline: as §1

S. aureus VISA/HIP5827 = assay: MIC, broth microdilution, vancomycin-intermediate S. aureus VISA HIP5827; assay type: cell-based, Staphylococcus aureus; details: for MIC: Staphylococcus aureus VISA/HIP5827, read-out: MIC; for MIC-fold improvement vs. vancomycin: VISA/HIP5827, ratio of MIC of vancomycin and MIC of analogue
Outline: as §1

S. aureus VRSA = assay: MIC, broth microdilution, vancomycin-resistant S. aureus (VRSA); assay type: cell-based, Staphylococcus aureus; details: for MIC: Staphylococcus aureus VRSA, read-out: MIC; for MIC-fold improvement vs. vancomycin: VRSA, ratio of MIC of vancomycin and MIC of analogue
Outline: as §1

MRSA KS2 = assay: MIC, broth microdilution, MRSA KS2; assay type: cell-based, Staphylococcus aureus; details: for MIC-fold improvement vs. vancomycin: MRSA KS2, ratio of MIC of vancomycin and MIC of analogue; for MIC: Staphylococcus aureus MRSA KS2, read-out: MIC
Outline: as §1

MRSA KS6 = assay: MIC, broth microdilution, MRSA KS6; assay type: cell-based, Staphylococcus aureus; details: for MIC-fold improvement vs. vancomycin: MRSA KS6, ratio of MIC of vancomycin and MIC of analogue; for MIC: Staphylococcus aureus MRSA KS6, read-out: MIC
Outline: as §1

MRSA KS89 = assay: MIC, broth microdilution, MRSA KS89; assay type: cell-based, Staphylococcus aureus; details: for MIC-fold improvement vs. vancomycin: ratio of MIC of vancomycin and MIC of analogue; for MIC: read-out: MIC
Outline: as §1

MRSA KS1 = assay: MIC, broth microdilution, MRSA KS1; assay type: cell-based, Staphylococcus aureus; details: for MIC-fold improvement vs. vancomycin: MRSA KS1, ratio of MIC of vancomycin and MIC of analogue; for MIC: Staphylococcus aureus MRSA KS1, read-out: MIC
Outline: as §1

[6] = system: Clostridium difficile ATJ ribotype 014/20; assay: MIC, plate drop assay, C. difficile ATJ ribotype 014/20; assay type: cell-based; details: for MIC-fold improvement vs. vancomycin: C. difficile ATJ ribotype 014/20
Method: (§3) Bacterial lawns of both C. difficile strains were prepared by adding 0.5 mL overnight culture to 8 mL sloppy BHI agar (0.4% agar) supplemented with 1.5 g/L CaCl2⋅2H2O and 81.2 g/L MgCl2⋅6H2O, and pouring the mixture into Petri plates. A twofold dilution series of the selected vancomycin analogs, vancomycin ([…]) and daptomycin (25 μM) was spotted (10 μL) on the bacterial lawn. Spots were air-dried and the plates were incubated overnight at 37°C in an anaerobic cabinet. Ultrapure water was included as negative control. The assay was performed in triplicate. Inhibition was observed by cleared spots.

[7] = system: Clostridium difficile AIU ribotype 027; assay: MIC, plate drop assay, C. difficile AIU ribotype 027; assay type: cell-based; details: C. difficile AIU ribotype 027
Method: as §3

In the case of `CNC(CC(C)C)C(=O)NC1C(=O)NC(CC(N)=O)C(=O)NC2C(=O)NC3C(=O)NC(C(=O)NC(C(=O)NCCNC(=O)C=Cc4ccccc4)c4cc(O)cc(O)c4-c4cc3ccc4O)C(O)c3ccc(c(Cl)c3)Oc3cc2cc(c3OC2OC(CO)C(O)C(O)C2OC2CC(C)(N)C(O)C(C)O2)Oc2ccc(cc2Cl)C1O` (centres unmarked) [Vanc-21], the MIC (E. faecalis VSE 1) is reported as 0.39 µM (≈ 0.632 µg/mL), the “MIC-fold improvement vs. vancomycin” value (E. faecalis VSE 1) is reported as 4 and the MIC (E. faecalis VRE 6) is reported as 1.56 µM (≈ 2.53 µg/mL). The “MIC-fold improvement vs. vancomycin” value (E. faecalis VRE 6) was 128, the MIC (E. faecalis VRE 53) was 12.5 µM (≈ 20.3 µg/mL) and the “MIC-fold improvement vs. vancomycin” value (E. faecalis VRE 53) was 32. The MIC (E. faecalis VRE 29) was 12.5 µM (≈ 20.3 µg/mL), the “MIC-fold improvement vs. vancomycin” value (E. faecalis VRE 29) was 32 and the MIC (E. faecalis VRE 37) was 12.5 µM (≈ 20.3 µg/mL). For the same molecule, the IC50 [1] was greater than 250 µM, the IC50 [2] was greater than 250 µM and the IC50 [3] was greater than 250 µM. For the same molecule, the IC50 [4] was greater than 250 µM, the MIC [5] was 0.78 µM (≈ 1.26 µg/mL) and the “MIC-fold improvement vs. vancomycin” value [5] was 1. For the same molecule, the MIC (S. aureus VISA/HIP5827) was 0.78 µM (≈ 1.26 µg/mL), the “MIC-fold improvement vs. vancomycin” value (S. aureus VISA/HIP5827) was 8 and the MIC (S. aureus VRSA) was 1.56 µM (≈ 2.53 µg/mL). The “MIC-fold improvement vs. vancomycin” value (S. aureus VRSA) was 64, the “MIC-fold improvement vs. vancomycin” value (MRSA KS2) was 2 and the MIC (MRSA KS2) was 0.39 µM (≈ 0.632 µg/mL). For the same molecule, the “MIC-fold improvement vs. vancomycin” value (MRSA KS6) was 1, the MIC (MRSA KS6) was 0.78 µM (≈ 1.26 µg/mL) and the “MIC-fold improvement vs. vancomycin” value (MRSA KS89; MRSA KS8) was 1. For the same molecule, the MIC (MRSA KS89; Staphylococcus aureus MRSA KS8) was 0.78 µM (≈ 1.26 µg/mL), the “MIC-fold improvement vs. vancomycin” value (MRSA KS1) was 1 and the MIC (MRSA KS1) was 0.78 µM (≈ 1.26 µg/mL). For the same molecule, the “MIC-fold improvement vs. vancomycin” value [6] was less than 1.4, the MIC ([6]; C. difficile ATJ ribotype 014/20, plate drop assay) was greater than 25 µM and the “MIC-fold improvement vs. vancomycin” value [7] was 4.
For `CN[C@H](CC(C)C)C(=O)N[C@H]1C(=O)N[C@@H](CC(N)=O)C(=O)N[C@H]2C(=O)N[C@H]3C(=O)N[C@H](C(=O)N[C@H](C(=O)NCC(=O)Nc4ccc5cc6ccccc6cc5c4)c4cc(O)cc(O)c4-c4cc3ccc4O)[C@H](O)c3ccc(c(Cl)c3)Oc3cc2cc(c3O[C@@H]2O[C@H](CO)[C@@H](O)[C@H](O)[C@H]2O[C@H]2C[C@](C)(N)[C@H](O)[C@H](C)O2)Oc2ccc(cc2Cl)[C@H]1O` [Vanc-59], the MIC (E. faecalis VSE 1) was 0.20 µM (≈ 0.336 µg/mL), the “MIC-fold improvement vs. vancomycin” value (E. faecalis VSE 1) was 8 and the MIC (E. faecalis VRE 6) was 1.56 µM (≈ 2.62 µg/mL). For the same molecule, the “MIC-fold improvement vs. vancomycin” value (E. faecalis VRE 6) was 128, the MIC (E. faecalis VRE 53) was 12.5 µM (≈ 21 µg/mL) and the “MIC-fold improvement vs. vancomycin” value (E. faecalis VRE 53) was 32. For the same molecule, the MIC (E. faecalis VRE 29) was 3.13 µM (≈ 5.26 µg/mL), the “MIC-fold improvement vs. vancomycin” value (E. faecalis VRE 29) was 128 and the MIC (E. faecalis VRE 37) was 1.56 µM (≈ 2.62 µg/mL). The “MIC-fold improvement vs. vancomycin” value (E. faecalis VRE 37) was 256, the IC50 [1] was 177 ± 90 µM and the IC50 [2] was 23 ± 6 µM. The IC50 [3] was 88 ± 37 µM, the IC50 [4] was 96 µM and the MIC [5] was 0.39 µM (≈ 0.656 µg/mL). For the same molecule, the “MIC-fold improvement vs. vancomycin” value [5] was 2, the MIC (S. aureus VISA/HIP5827) was 0.39 µM (≈ 0.656 µg/mL) and the “MIC-fold improvement vs. vancomycin” value (S. aureus VISA/HIP5827) was 16. For the same molecule, the MIC (S. aureus VRSA) was 0.20 µM (≈ 0.336 µg/mL), the “MIC-fold improvement vs. vancomycin” value (S. aureus VRSA) was 512 and the “MIC-fold improvement vs. vancomycin” value [6] was 22. For the same molecule, the “MIC-fold improvement vs. vancomycin” value [7] was 29.
For `CCCCCCn1cc(-c2ccc(NC(=O)CNC(=O)C3NC(=O)C4NC(=O)C(NC(=O)C5NC(=O)C(CC(N)=O)NC(=O)C(NC(=O)C(CC(C)C)NC)C(O)c6ccc(c(Cl)c6)Oc6cc5cc(c6OC5OC(CO)C(O)C(O)C5OC5CC(C)(N)C(O)C(C)O5)Oc5ccc(cc5Cl)C4O)c4ccc(O)c(c4)-c4c(O)cc(O)cc43)cc2)nn1` (centres unmarked) [Vanc-92], the MIC (E. faecalis VSE 1) was 0.10 µM (≈ 0.173 µg/mL), the “MIC-fold improvement vs. vancomycin” value (E. faecalis VSE 1) was 16 and the MIC (E. faecalis VRE 6) was 6.25 µM (≈ 10.8 µg/mL). For the same molecule, the “MIC-fold improvement vs. vancomycin” value (E. faecalis VRE 6) was 32, the MIC (E. faecalis VRE 53) was 25 µM (≈ 43.3 µg/mL) and the “MIC-fold improvement vs. vancomycin” value (E. faecalis VRE 53) was 16. The MIC (E. faecalis VRE 29) was 6.25 µM (≈ 10.8 µg/mL), the “MIC-fold improvement vs. vancomycin” value (E. faecalis VRE 29) was 64 and the MIC (E. faecalis VRE 37) was 6.25 µM (≈ 10.8 µg/mL). For the same molecule, the “MIC-fold improvement vs. vancomycin” value (E. faecalis VRE 37) was 64, the IC50 [1] was 95 ± 75 µM and the IC50 [2] was 31 ± 7 µM. The IC50 [3] was 98 ± 12 µM, the IC50 [4] was 75 µM and the MIC [5] was 0.20 µM (≈ 0.347 µg/mL). For the same molecule, the “MIC-fold improvement vs. vancomycin” value [5] was 4, the MIC (S. aureus VISA/HIP5827) was 0.78 µM (≈ 1.35 µg/mL) and the “MIC-fold improvement vs. vancomycin” value (S. aureus VISA/HIP5827) was 8. For the same molecule, the MIC (S. aureus VRSA) was 0.78 µM (≈ 1.35 µg/mL), the “MIC-fold improvement vs. vancomycin” value (S. aureus VRSA) was 128 and the “MIC-fold improvement vs. vancomycin” value (MRSA KS2) was 4. The MIC (MRSA KS2) was 0.20 µM (≈ 0.347 µg/mL), the “MIC-fold improvement vs. vancomycin” value (MRSA KS6) was 4 and the MIC (MRSA KS6) was 0.20 µM (≈ 0.347 µg/mL). For the same molecule, the “MIC-fold improvement vs. vancomycin” value (MRSA KS89; MRSA KS8 (head; KS89 in title)) was 4, the MIC (MRSA KS89; Staphylococcus aureus MRSA KS8 (head; KS89 in title)) was 0.20 µM (≈ 0.347 µg/mL) and the “MIC-fold improvement vs. vancomycin” value (MRSA KS1) was 4. It also gave an MIC (MRSA KS1) of 0.20 µM (≈ 0.347 µg/mL).
